Experimental data: US9023350B2, “Synergistic pharmaceutical composition useful for inhibiting corneal and retinal neovascularization (angiogenesis), and in other organs, in a human being or animals” (Association Civil de Estudios Superiores, priority 2007, dated 2015)

Columns and labels:
corneal neovasculization = assay: Corneal neovasculization model (NaOH alkali burn of the cornea), neovasculization index; format: in vivo; details: rabbit, during 35 days of evaluation, single iv dose
Protocol: After anaesthetizing a Newzealender breed white rabbit of 3 kg. with a midazolam and ketamine hydrochloride with an intramuscular injection, installation of topical proparacaine was performed (Anestalcon, Alcon, Argentina) in the eye and a blepharostat was place on the right eye. During 20 seconds 7 mm diameter dicks of Whatman filter paper were soaked in a 1N NaOH solution. The paper disk was placed on the central part of the cornea with a pincer leaving it there for 2 minutes. Immediately afterwards the injured zone was washed with 15 ml saline physiological solution (CINa, 0.9%) during one minute. The same process was performed on 12 rabbits of the same color, breed and weight.
Formation of neovessels were quantified with a value of 0 to 4 to each quadrant according to the centripetal growth of the longest vessel (in 1 mm increases i.e, 0=0 mm; 1=equal or less than 1 mm; 2=more than 1 and up to 2 mm; 3=more than 2 and up to 3 mm; 4=more than 3 mm). The sum of the four quadrants provided the neovasculization index (INV) for that eye.
24 hs after the lesion was caused the first clinical examination was performed and was then continued every three days. This was carried out using an operator microscope or a surgical magnifying glass and photographs were taken with a digital camera Nikon Coolpix 5700. The INV register was performed on days 9, 15, 21 and 35 on all the animals. […]

[1] = test system: CT26 cells (colon adenocarcinoma); assay: Oncological angiogenesis model, subcutaneous CT26 tumors; format: in vivo, Balb/c rats; details: day 31; single iv dose on day 7: Suramine 20 mg/Kg, Bevacizumab 5 mg/Kg, suramab = Suramine 20 mg/Kg + Bevacizumab 5 mg/Kg
Protocol: 5×10^5 CT26 cells (colon adenocarcinoma) were inoculated subcutaneously, in the dorsal-lateral region of Balb/c rats. On the 7th day of inoculation 4 groups of animals were formed that received different treatments via iv (in the tail vein).
• a. […] Control group: (n=7) PS 100 μl under slow infusion.
The tumors were measured three times per week. The following formula was used to calculate the tumor volume: […]. The animals having tumors volumes greater or equal to 8000 mm3 were sacrificed.
Survival was considered till day 35 post tumor inoculation.

Compound | effect on corneal neovasculization (in words) (corneal neovasculization) | tumor volume compared to the control group (in words) [1]
Cc1ccc(C(=O)Nc2ccc(S(=O)(=O)O)c3cc(S(=O)(=O)O)cc(S(=O)(=O)O)c23)cc1NC(=O)c1cccc(NC(=O)Nc2cccc(C(=O)Nc3cc(C(=O)Nc4ccc(S(=O)(=O)O)c5cc(S(=O)(=O)O)cc(S(=O)(=O)O)c45)ccc3C)c2)c1 [Suramine] | inhibiting effect on neovasculization | reduction of tumor volume compared to the control group
Bevacizumab: monoclonal antibody, humanized and recombinant, that binds to VEGF-A | inhibiting effect on neovasculization | reduction of tumor volume compared to the control group
